Activity data for one compound are collected here from ChEMBL document CHEMBL1158916, “2-O-alpha-D-galactopyranosyl glycerol hexaacetate from Ruellia brittoniana” (J Nat Prod, 1990).

This data set has as its system Rattus norvegicus. As to the kind of experiment: Toxicity in anesthetized rat assessed as increase in mean arterial pressure at 100 ug/kg. The format is organism-based, Artery. Conditions: in vivo, 0.1 mg/kg.

`CC(=O)OCC(COC(C)=O)O[C@H]1O[C@H](COC(C)=O)[C@H](OC(C)=O)[C@H](OC(C)=O)[C@H]1OC(C)=O`: the Activity entry is “Toxic”.
